Laboratory results published in ChEMBL document CHEMBL3045792, “Synthesis, antimicrobial activity, and molecular modeling of novel 4-(3-(4-benzylpiperazin-1-yl)propoxy)-7-methoxy-3-substituted phenyl-2H-chromen-2-one” (2013).
Active and inactive are the calls of the source. No cut-off for these calls is given here.

Experiments:
Type in all cases: functional
[1] = tested on: Proteus vulgaris; assay: Antibacterial activity against Proteus vulgaris assessed as growth inhibition at 900 ug/ml by NCCLS […] method; settings: read-out: IZ
[2] = tested on: Bacillus pumilus; assay: Antibacterial activity against Bacillus pumilus assessed as growth inhibition at 600 ug/ml by NCCLS […] method; settings: for zone of inhibition at 600 µg/mL: read-out: IZ
[3] = tested on: Fusarium oxysporum; assay: Antifungal activity against Fusarium oxysporum assessed as growth inhibition at 1200 ug/ml; settings: read-out: IZ
[4] = tested on: Klebsiella pneumoniae; assay: Antibacterial activity against Klebsiella pneumoniae assessed as growth inhibition at 900 ug/ml by NCCLS […] method; settings: read-out: IZ
[5] = tested on: Staphylococcus aureus; assay: Antibacterial activity against Staphylococcus aureus assessed as growth inhibition at 600 ug/ml by NCCLS […] method; settings: read-out: IZ
[6] = tested on: Klebsiella aerogenes; assay: Antibacterial activity against Enterobacter aerogenes assessed as growth inhibition at 900 ug/ml by NCCLS […] method; settings: for zone of inhibition at 900 µg/mL: read-out: IZ
[7] = tested on: Proteus mirabilis; assay: Antibacterial activity against Proteus mirabilis assessed as growth inhibition at 900 ug/ml by NCCLS […] method; settings: read-out: IZ
[8] = tested on: Priestia megaterium; assay: Antibacterial activity against Bacillus megaterium assessed as growth inhibition at 600 ug/ml by NCCLS […] method; settings: read-out: IZ
[9] = tested on: Colletotrichum falcatum; assay: Antifungal activity against Glomerella tucumanensis assessed as growth inhibition at 1200 ug/ml; settings: read-out: IZ
[10] = tested on: Fusarium oxysporum; assay: Antifungal activity against Fusarium oxysporum assessed as growth inhibition at 600 ug/ml; settings: read-out: IZ
[11] = tested on: Candida albicans; assay: Antifungal activity against Candida albicans assessed as growth inhibition at 1200 ug/ml; settings: for zone of inhibition at 1200 µg/mL: read-out: IZ
[12] = tested on: Bacillus subtilis; assay: Antibacterial activity against Bacillus subtilis assessed as growth inhibition at 600 ug/ml by NCCLS […] method; settings: read-out: IZ
[13] = tested on: Proteus vulgaris; assay: Antibacterial activity against Proteus vulgaris assessed as growth inhibition at 600 ug/ml by NCCLS […] method; settings: read-out: IZ
[14] = tested on: Colletotrichum falcatum; assay: Antifungal activity against Glomerella tucumanensis assessed as growth inhibition at 900 ug/ml; settings: read-out: IZ
[15] = tested on: Exserohilum rostratum; assay: Antifungal activity against Setosphaeria rostrata assessed as growth inhibition at 300 ug/ml; settings: read-out: IZ
[16] = tested on: Fusarium oxysporum; assay: Antifungal activity against Fusarium oxysporum assessed as growth inhibition at 900 ug/ml; settings: read-out: IZ
[17] = tested on: Streptococcus pyogenes; assay: Antibacterial activity against Streptococcus pyogenes assessed as growth inhibition at 600 ug/ml by NCCLS […] method; settings: read-out: IZ
[18] = tested on: Escherichia coli; assay: Antibacterial activity against Escherichia coli assessed as growth inhibition at 600 ug/ml by NCCLS […] method; settings: read-out: IZ
[19] = tested on: Proteus mirabilis; assay: Antibacterial activity against Proteus mirabilis assessed as growth inhibition at 600 ug/ml by NCCLS […] method; settings: read-out: IZ
[20] = tested on: Escherichia coli; assay: Antibacterial activity against Escherichia coli assessed as growth inhibition at 900 ug/ml by NCCLS […] method; settings: read-out: IZ
[21] = tested on: Candida albicans; assay: Antifungal activity against Candida albicans assessed as growth inhibition at 300 ug/ml; settings: for zone of inhibition at 300 µg/mL: read-out: IZ
[22] = tested on: Bacillus pumilus; assay: Antibacterial activity against Bacillus pumilus assessed as growth inhibition at 900 ug/ml by NCCLS […] method; settings: for zone of inhibition at 900 µg/mL: read-out: IZ
[23] = tested on: Staphylococcus aureus; assay: Antibacterial activity against Staphylococcus aureus assessed as growth inhibition at 900 ug/ml by NCCLS […] method; settings: read-out: IZ
[24] = tested on: Colletotrichum falcatum; assay: Antifungal activity against Glomerella tucumanensis assessed as growth inhibition at 600 ug/ml; settings: read-out: IZ
[25] = tested on: Exserohilum rostratum; assay: Antifungal activity against Setosphaeria rostrata assessed as growth inhibition at 600 ug/ml; settings: read-out: IZ
[26] = tested on: Fusarium oxysporum; assay: Antifungal activity against Fusarium oxysporum assessed as growth inhibition at 300 ug/ml; settings: read-out: IZ
[27] = tested on: Exserohilum rostratum; assay: Antifungal activity against Setosphaeria rostrata assessed as growth inhibition at 1200 ug/ml; settings: read-out: IZ
[28] = tested on: Streptococcus pyogenes; assay: Antibacterial activity against Streptococcus pyogenes assessed as growth inhibition at 900 ug/ml by NCCLS […] method; settings: read-out: IZ
[29] = tested on: Candida albicans; assay: Antifungal activity against Candida albicans assessed as growth inhibition at 600 ug/ml; settings: for zone of inhibition at 600 µg/mL: read-out: IZ
[30] = tested on: Bacillus subtilis; assay: Antibacterial activity against Bacillus subtilis assessed as growth inhibition at 900 ug/ml by NCCLS […] method; settings: read-out: IZ
[31] = tested on: Candida albicans; assay: Antifungal activity against Candida albicans assessed as growth inhibition at 900 ug/ml; settings: for zone of inhibition at 900 µg/mL: read-out: IZ
[32] = tested on: Priestia megaterium; assay: Antibacterial activity against Bacillus megaterium assessed as growth inhibition at 900 ug/ml by NCCLS […] method; settings: read-out: IZ
[33] = tested on: Klebsiella pneumoniae; assay: Antibacterial activity against Klebsiella pneumoniae assessed as growth inhibition at 600 ug/ml by NCCLS […] method; settings: read-out: IZ
[34] = tested on: Klebsiella aerogenes; assay: Antibacterial activity against Enterobacter aerogenes assessed as growth inhibition at 600 ug/ml by NCCLS […] method; settings: for zone of inhibition at 600 µg/mL: read-out: IZ
[35] = tested on: Colletotrichum falcatum; assay: Antifungal activity against Glomerella tucumanensis assessed as growth inhibition at 300 ug/ml; settings: read-out: IZ
[36] = tested on: Exserohilum rostratum; assay: Antifungal activity against Setosphaeria rostrata assessed as growth inhibition at 900 ug/ml; settings: read-out: IZ

SMILES | zone of inhibition at 900 µg/mL [1] | zone of inhibition at 1200 µg/mL [3] | zone of inhibition at 900 µg/mL [4] | zone of inhibition at 600 µg/mL [5] | zone of inhibition at 900 µg/mL [7] | zone of inhibition at 600 µg/mL [8] | zone of inhibition at 1200 µg/mL [9] | zone of inhibition at 600 µg/mL [10] | zone of inhibition at 600 µg/mL [12] | zone of inhibition at 600 µg/mL [13] | zone of inhibition at 900 µg/mL [14] | zone of inhibition at 300 µg/mL [15] | zone of inhibition at 900 µg/mL [16] | zone of inhibition at 600 µg/mL [17] | zone of inhibition at 600 µg/mL [18] | zone of inhibition at 600 µg/mL [19] | zone of inhibition at 900 µg/mL [20] | zone of inhibition at 900 µg/mL [23] | zone of inhibition at 600 µg/mL [24] | zone of inhibition at 600 µg/mL [25] | further results
CCCOc1ccc(CN2CCN(CCCOc3c(-c4ccccc4)c(=O)oc4cc(OC)ccc34)CC2)cc1 | 8.09 mm | 19.8 mm | 4.25 mm | 1.55 mm | 2.48 mm | 4.2 mm | 32.5 mm | 4.92 mm | 2.5 mm | 4.2 mm | 16.8 mm | 3.25 mm | 12.1 mm | 3.25 mm | 1.25 mm | 1.02 mm | 3.49 mm | 3.25 mm | 7.6 mm | 6.02 mm | zone of inhibition at 600 µg/mL [2]: 3.2 mm; zone of inhibition at 900 µg/mL [6]: 4.02 mm; growth inhibition (GI) [11]: inactive; growth inhibition (GI) [21]: inactive; zone of inhibition at 900 µg/mL [22]: 6.8 mm; zone of inhibition at 300 µg/mL [26]: 2.48 mm; zone of inhibition at 1200 µg/mL [27]: 28.6 mm; zone of inhibition at 900 µg/mL [28]: 6.84 mm; growth inhibition (GI) [29]: inactive; zone of inhibition at 900 µg/mL [30]: 4.25 mm; growth inhibition (GI) [31]: inactive; zone of inhibition at 900 µg/mL [32]: 8.4 mm; zone of inhibition at 600 µg/mL [33]: 2.04 mm; zone of inhibition at 600 µg/mL [34]: 2 mm; zone of inhibition at 300 µg/mL [35]: 4.49 mm; zone of inhibition at 900 µg/mL [36]: 14.6 mm
COc1ccc2c(OCCCN3CCN(Cc4cccnc4)CC3)c(-c3ccccc3)c(=O)oc2c1 | 17.1 mm | 27.9 mm | 7.93 mm | 11.6 mm | 21.6 mm | 7.65 mm | 27 mm | 8.78 mm | 8.76 mm | 8.76 mm | 13.2 mm | 2.9 mm | 18.8 mm | 9.12 mm | 3.87 mm | 11.3 mm | 6.21 mm | 21.4 mm | 7.76 mm | 6.76 mm | growth inhibition (GI) [2]: inactive; zone of inhibition at 900 µg/mL [6]: 8.56 mm; zone of inhibition at 1200 µg/mL [11]: 24.6 mm; zone of inhibition at 300 µg/mL [21]: 3.21 mm; growth inhibition (GI) [22]: inactive; zone of inhibition at 300 µg/mL [26]: 3.47 mm; zone of inhibition at 1200 µg/mL [27]: 23.4 mm; zone of inhibition at 900 µg/mL [28]: 16.8 mm; zone of inhibition at 600 µg/mL [29]: 6.14 mm; zone of inhibition at 900 µg/mL [30]: 15.1 mm; zone of inhibition at 900 µg/mL [31]: 13.7 mm; zone of inhibition at 900 µg/mL [32]: 13.4 mm; zone of inhibition at 600 µg/mL [33]: 3.78 mm; zone of inhibition at 600 µg/mL [34]: 4.22 mm; zone of inhibition at 300 µg/mL [35]: 4.45 mm; zone of inhibition at 900 µg/mL [36]: 11.9 mm
COc1ccc2c(OCCCN3CCN(Cc4ccc(Cl)cc4Cl)CC3)c(-c3ccccc3)c(=O)oc2c1 | 8.04 mm | 25.8 mm | 14 mm | 6.5 mm | 9.01 mm | 6.3 mm | 26.4 mm | 6.25 mm | 9.02 mm | 4.02 mm | 13.8 mm | 2.89 mm | 13.6 mm | 3.27 mm | 7.02 mm | 4.91 mm | 14.1 mm | 12 mm | 6.5 mm | 5.76 mm | zone of inhibition at 600 µg/mL [2]: 2.01 mm; zone of inhibition at 900 µg/mL [6]: 8.08 mm; zone of inhibition at 1200 µg/mL [11]: 17.2 mm; zone of inhibition at 300 µg/mL [21]: 2.01 mm; zone of inhibition at 900 µg/mL [22]: 4.28 mm; zone of inhibition at 300 µg/mL [26]: 3.08 mm; zone of inhibition at 1200 µg/mL [27]: 23.2 mm; zone of inhibition at 900 µg/mL [28]: 6.25 mm; zone of inhibition at 600 µg/mL [29]: 4.89 mm; zone of inhibition at 900 µg/mL [30]: 12.1 mm; zone of inhibition at 900 µg/mL [31]: 9.56 mm; zone of inhibition at 900 µg/mL [32]: 12 mm; zone of inhibition at 600 µg/mL [33]: 8.82 mm; zone of inhibition at 600 µg/mL [34]: 4.25 mm; zone of inhibition at 300 µg/mL [35]: 3.25 mm; zone of inhibition at 900 µg/mL [36]: 11.6 mm
COc1ccc2c(OCCCN3CCN(Cc4ccc(F)cc4F)CC3)c(-c3ccccc3)c(=O)oc2c1 | 8.02 mm | 28.1 mm | 6.34 mm | 3.41 mm | 4.29 mm | 4.48 mm | 25.9 mm | 8.56 mm | 5.3 mm | 4.2 mm | 13.6 mm | 5.02 mm | 16.9 mm | 5.3 mm | 2.6 mm | 2.65 mm | 4.8 mm | 6.48 mm | 5.56 mm | 7.68 mm | zone of inhibition at 600 µg/mL [2]: 5.02 mm; growth inhibition (GI) [6]: inactive; zone of inhibition at 1200 µg/mL [11]: 18.2 mm; zone of inhibition at 300 µg/mL [21]: 2.25 mm; zone of inhibition at 900 µg/mL [22]: 10.7 mm; zone of inhibition at 300 µg/mL [26]: 4.2 mm; zone of inhibition at 1200 µg/mL [27]: 26.8 mm; zone of inhibition at 900 µg/mL [28]: 10.2 mm; zone of inhibition at 600 µg/mL [29]: 4.5 mm; zone of inhibition at 900 µg/mL [30]: 10.7 mm; zone of inhibition at 900 µg/mL [31]: 9.6 mm; zone of inhibition at 900 µg/mL [32]: 8.98 mm; zone of inhibition at 600 µg/mL [33]: 3.24 mm; growth inhibition (GI) [34]: inactive; zone of inhibition at 300 µg/mL [35]: 3.24 mm; zone of inhibition at 900 µg/mL [36]: 14.2 mm
